Literature values as cited in patent US20080003278A1, “Food products and dietary supplements for improving mental performance” (priority 2006, published 2008).

System: epileptic seizures
Settings: thirty-one patients participating in the study

## CCOC(=O)C1=C[C@]2(CC)CCCN3CCc4c(n1c1ccccc41)[C@@H]32 [vinpocetine]
  patients in whom the frequency of epileptic seizures was reduced and, in some cases, seizures completely eliminated: twenty of the thirty-one
